Measurements taken from patent US12472166B2, “Inhibition of mycobacterial type VII secretion” (priority 2019, dated 2025).
“Also recorded” adds a separate entry of the source.

Tests used:
Format in all cases: cell-based
[1] = tested on: ESX-5 dependent secretion
[2] = tested on: PE_PGRS and EsxN (ESX-5 dependent secretion)
[3] = tested on: Apa (SEC dependent secretion)

| SMILES | effect on ESX-5 secretion activity (lipase DGGR vs viability REMA) [1] | also measured |
| --- | --- | --- |
| O=C(CSc1nc(-c2ccccc2)ns1)NC1CCCC1 [Compound I-5] | significant reduction in lipase activity (substrate DGGR) before the bacterial viability (REMA) is affected |  |
| COc1ccc(-c2nsc(SCC(=O)NC3CCCC3)n2)cc1 [Compound I-12] |  | effect on secretion of the reporter lipase LipY when mspA was over-produced [1]: showed no changes; lipase secretion compared to DMSO treated control [1]: significant reduction of lipase secretion; secreted PE_PGRS proteins compared to DMSO control [2]: most drastic decrease; also recorded: secretion inhibition similar to the non-functional ESX-5 mutant; secretion of Apa [3]: did not affect secretion |
| COc1ccc(-c2nsc(SCC(=O)NCC3CCCC3)n2)cc1 [Compound I-38, reference compound] | do not affect the activity of ESX-5 |  |
| Cc1cccc(-c2nsc(SCC(=O)NCC3CCCO3)n2)c1 (stereo not shown) [Compound I-39, reference compound] | do not affect the activity of ESX-5 |  |
| CCOC(=O)CNC(=O)CSc1nc(-c2cccc(C)c2)ns1 [Compound I-40, reference compound] | affect ESX-5 secretion activity |  |
| CCOC(=O)CNC(=O)CSc1nc(-c2ccccc2)ns1 [Compound I-41, reference compound] | affect ESX-5 secretion activity |  |
| CO[C@H]1/C=C/O[C@@]2(C)Oc3c(C)c(O)c4c(O)c(c(/C=N/N5CCN(C)CC5)c(O)c4c3C2=O)NC(=O)/C(C)=C\C=C\[C@H](C)[C@H](O)[C@@H](C)[C@@H](O)[C@@H](C)[C@H](OC(C)=O)[C@@H]1C [Rifampin, reference compound] |  | lipase activity (DGGR) readout, control condition [1]: negative |
